Test results published in the supplement of paper PMC10307832.

Tests used:
Test in all cases: relative viability (nuclei count vs DMSO), 5 days (fraction); higher = more cells survive
[1] = compound: CC1=C(CC(=O)O)c2cc(F)ccc2/C1=C\c1ccc([S+](C)[O-])cc1 [Sulindac]
Summary of the method: (§1)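 Five library-drug doses spaced by √10 were pinned onto vehicle-anchored 1536-well plates of lung cancer cell lines that had been kept overnight at 37 °C. Cells went 5 days without medium change, then were fixed, permeabilised and Hoechst-stained together, imaged at 4× and counted by MetaXpress. Viability is the ratio of treated-well to vehicle-well nuclei, taken as a median over plates. Plates required control CV below 25% and at least one doubling.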

[2] = compound: CN[C@@H]1C[C@H]2O[C@@](C)([C@@H]1OC)n1c3ccccc3c3c4c(c5c6ccccc6n2c5c31)C(=O)NC4 [Staurosporine]
Summary of the method: as §1

[3] = compound: O=c1[nH]cc(F)c(=O)[nH]1 [5-Fluorouracil]
Summary of the method: as §1

Cell Line | relative viability ([1]; 0.08 µM) | relative viability ([1]; 0.253 µM) | relative viability ([1]; 0.8 µM) | relative viability ([1]; 2.53 µM) | relative viability ([1]; 8 µM) | relative viability ([2]; 0.005 µM) | relative viability ([2]; 0.01581 µM) | relative viability ([2]; 0.05 µM) | relative viability ([2]; 0.1581 µM) | relative viability ([2]; 0.5 µM) | relative viability ([3]; 0.02 µM) | relative viability ([3]; 0.2 µM) | relative viability ([3]; 0.6325 µM) | relative viability ([3]; 2 µM)
SK-LU-1 | 1.21 | 1.12 | 0.805 | 0.975 | 1.28 | 0.704 | 0.274 | 0.191 | 0.207 | 0.165 | 0.996 | 1.1 | 0.968 | 0.83
H3255 | 0.943 | 0.968 | 0.884 | 1 | 1.1 | 0.596 | 0.432 | 0.363 | 0.267 | 0.145 | 0.901 | 1.09 | 0.89 | 0.712
EMC-BAC-2 | 1.09 | 0.976 | 0.869 | 0.968 | 1.19 | 0.437 | 0.213 | 0.222 | 0.21 | 0.259 | 1.07 | 1.06 | 1.03 | 0.924
NCI-H522 | 0.911 | 1.19 | 0.834 | 0.912 | 1.14 | 1 | 0.686 | 0.782 | 0.501 | 0.437 | 1.03 | 1 | 0.83 | 0.855
CAL-12T | 1.05 | 1.09 | 0.864 | 0.946 | 1.12 | 0.34 | 0.223 | – | 0.15 | 0.144 | 1.08 | 1.03 | 0.659 | 0.448
NCI-H727 | 0.963 | 0.923 | 0.741 | 0.9 | 1.01 | 0.736 | 0.554 | 0.381 | 0.345 | 0.22 | 0.925 | 1.19 | 0.846 | 0.774
SK-MES-1 | 1.18 | 1.14 | 0.818 | 1.08 | 1.1 | 0.572 | 0.334 | 0.213 | 0.217 | 0.127 | 1.04 | 0.634 | 0.364 | 0.316
EBC-1 | 1.12 | 1.14 | 0.705 | 1.09 | 1.1 | 0.623 | 0.395 | 0.239 | 0.2 | 0.12 | 1.03 | 0.979 | 0.934 | 0.619
NCI-H1355 | 1.02 | 1.06 | 0.873 | 0.971 | 1.08 | 0.856 | 0.238 | 0.363 | 0.197 | 0.159 | 0.925 | 0.877 | 0.438 | 0.309
PC-3 [JPC-3] | 1.16 | 1.03 | 0.926 | 1.02 | 1.12 | 1.02 | 0.36 | 0.698 | 0.384 | 0.317 | 0.967 | 1.1 | 0.954 | 0.743
